This passage reports pest or weed control results from patent JP2014001205A, “動物の寄生虫防除剤” (Nissan Chemical Corp, priority 2012, dated 2014).

The first assay deals with cat flea (Ctenocephalides felis) adults [ネコノミ(Ctenocephalides felis)成虫]. In words: Efficacy test against cat flea (Test Example 1), glass container film contact. The assay is classed as in vivo. The conditions noted are these: 96 h, 10μg/cm2, 5 adults (mixed sex), 25℃, 4 days, duplicate, read-out: efficacy (number of insects with abnormal behaviour due to compound / number released × 100).
Turning to `CCN(C(=O)C(C)CSC)c1cn(-c2cccnc2)nc1C(F)(F)F` (stereo not shown) [1−523], the pest or weed control at 10 µg/cm2 is at least 80%.
On the same count and under the same terms, the figure for `CCN(C(=O)CCCS(C)(=O)=O)c1cn(-c2cccnc2)nc1Cl` [1−528] is at least 80%.
Consider `CNC(=S)Nc1cn(-c2cccnc2)nc1Cl` [1−552], for which the pest or weed control at 10 µg/cm2 was at least 80%.
On to `CCN(C(=O)NCC(F)(F)F)c1cn(-c2cccnc2)nc1Br` [1−587], for which the pest or weed control at 10 µg/cm2 was at least 80%.
Consider `CCN(C(=O)CCCSC)c1cn(-c2cccnc2)nc1Cl` [1−520], for which the pest or weed control at 10 µg/cm2 was at least 80%.
On the same count and under the same terms, the figure for `CSCC(C)C(=O)Nc1cn(-c2cccnc2)nc1Cl` (stereo not shown) [1−074] is at least 80%.
The same measure, in the same setting: the figure for `CCNC(=O)NCC(=O)N(CC)c1cn(-c2cccnc2)nc1Cl` [1−375] is at least 80%.
Regarding `CCN(C(N)=O)c1cn(-c2cccnc2)nc1Cl` [1−572], the pest or weed control at 10 µg/cm2 was at least 80%.
Same read-out and setting: the figure for `CN(C(=O)NCC(F)(F)F)c1cn(-c2cccnc2)nc1Br` [1−586] is at least 80%; for `CCN(C(=O)C(=O)Nc1ccccc1)c1cn(-c2cccnc2)nc1Cl` [1−464] it is at least 80%; for `CCN(C(=O)CSCC(OC)OC)c1cn(-c2cccnc2)nc1Cl` [1−434] it is at least 80%.
The same measure, in the same setting: with `CC(CS(C)(=O)=O)C(=O)Nc1cn(-c2cccnc2)nc1Cl` (stereo not shown) [1−494] the figure was at least 80%.
Still for that read-out and setting: with `CCOCC(=O)N(CC)c1cn(-c2cccnc2)nc1Cl` [1−220] the figure was at least 80%; with `CCN(C(=O)C(C)SC(C)=O)c1cn(-c2cccnc2)nc1Cl` (stereo not shown) [1−245], at least 80%.
Take `CCN(C(=O)[C@H](C)CSC)c1cn(-c2cccnc2)nc1Cl` [1−048(S)−(−), (S)−(−)−N−{3−クロロ−1−(ピリジン−3−イル)−1H−ピラゾール−4−イル}−N−エチル−2−メチル−3−(メチルチオ)プロパンアミド]: the pest or weed control at 10 µg/cm2 is at least 80%.
On the same count and under the same terms, the figure for `C[C@H](CS(C)(=O)=O)C(=O)N(C)c1cn(-c2cccnc2)nc1Cl` [1−054(S)−(+)] is at least 80%.

Still in this assay, the particulars now being: 96 h, read-out: efficacy (number of insects with abnormal behaviour due to compound / number released × 100).
As to `O=C(NCCCl)Nc1cn(-c2cccnc2)nc1Cl` [1−593], the pest or weed control at 10 µg/cm2 was at least 80%.

A further assay deals with American dog tick (Dermacentor variabilis) first nymphs [American dog tick(Dermacentor variabilis)第1若虫]. In words: Efficacy test against American dog tick (Test Example 2), glass container film contact. The assay is classed as in vivo. The note with it: 96 h, 10μg/cm2, 5 first nymphs (mixed sex), 25℃, 4 days, duplicate, read-out: efficacy (number with abnormal behaviour due to compound / number released × 100).
On to `CCN(C(=O)C(CSC)c1ccccc1)c1cn(-c2cccnc2)nc1Cl` (stereo not shown) [1−216], for which the pest or weed control at 10 µg/cm2 was at least 80%.
Same read-out and setting: the figure for `CON=C(COCC(F)(F)F)C(=O)N(C)c1cn(-c2cccnc2)nc1Cl` [1−273] is at least 80%; for `CSCCC(=O)Nc1cn(-c2cccnc2)nc1Cl` [1−058] it is at least 80%; for `CCSCC(=O)N(CC)c1cn(-c2cccnc2)nc1Cl` [1−107] it is at least 80%.
The same measure, in the same setting: with `C=CC(=O)N(CC)c1cn(-c2cccnc2)nc1Cl` [1−152, N−{3−クロロ−1−(ピリジン−3−イル)−1H−ピラゾール−4−イル}−N−エチルアクリルアミド] the figure was at least 80%; with `CCN(C(=O)COCSC)c1cn(-c2cccnc2)nc1Cl` [1−067], at least 80%; with `CC(C)(C)OC(=O)Nc1cn(-c2cccnc2)nc1Cl` [1−046, tert−ブチル 3−クロロ−1−(ピリジン−3−イル)−1H−ピラゾール−4−イルカーバメート], at least 80%.
The same measure, in the same setting: with `CCCN(C(=O)CCSC)c1cn(-c2cccnc2)nc1Cl` [1−063] the figure was at least 80%; with `CCON=C(C[S+](C)[O-])C(=O)N(CC)c1cn(-c2cccnc2)nc1Cl` (stereo not shown) [1−208], at least 80%; with `CCN(C(C)=O)c1cn(-c2cccnc2)nc1Cl` [1−149], at least 80%.
As to `CCN(C(=O)CC[S+]([O-])CC(F)(F)F)c1cn(-c2cccnc2)nc1Cl` (stereo not shown) [1−154], the pest or weed control at 10 µg/cm2 was at least 80%.
Same read-out and setting: with `CCCC(=O)N(CC)c1cn(-c2cccnc2)nc1Cl` [1−151] the figure was at least 80%; with `CCN(C(=O)C(C[S+](C)[O-])OC)c1cn(-c2cccnc2)nc1Cl` (stereo not shown) [1−199], at least 80%; with `CSCCC(=O)Nc1cnn(-c2cccnc2)c1` [1−006], at least 80%.
The same measure, in the same setting: the figure for `CCCCON=C(CSC)C(=O)N(CC)c1cn(-c2cccnc2)nc1Cl` [1−184] is at least 80%.
On to `CCN(C(=O)C(CSC)=NOC(C)C)c1cn(-c2cccnc2)nc1Cl` [1−172], for which the pest or weed control at 10 µg/cm2 was at least 80%.
`C=CCON=C(CSC)C(=O)N(CC)c1cn(-c2cccnc2)nc1Cl` [1−222]: the pest or weed control at 10 µg/cm2 is at least 80%.
In the case of `CSCC(C)(C)C(=O)N(C)c1cn(-c2cccnc2)nc1Cl` [1−134, N−{3−クロロ−1−(ピリジン−3−イル)−1H−ピラゾール−4−イル}−N,2,2−トリメチル−3−(メチルチオ)プロパンアミド], the pest or weed control at 10 µg/cm2 is at least 80%.
Regarding `CCN(C(=O)CC[S+](C)[O-])c1cn(-c2cccnc2)nc1C` (stereo not shown) [1−110], the pest or weed control at 10 µg/cm2 is at least 80%.
Turning to `CCN(C(=O)CCSC(C)C)c1cn(-c2cccnc2)nc1Cl` [1−123], the pest or weed control at 10 µg/cm2 was at least 80%.
Regarding `CCCN(C(=O)C(C)CSC)c1cn(-c2cccnc2)nc1Cl` (stereo not shown) [1−066], the pest or weed control at 10 µg/cm2 was at least 80%.
Same read-out and setting: the figure for `CCN(C(=O)COC(C)(C)C)c1cn(-c2cccnc2)nc1Cl` [1−439] is at least 80%.
Same read-out and setting: with `CSCCC(=O)N(C)c1cn(-c2cccnc2)nc1C` [1−018, N−メチル−N−{3−メチル−1−(ピリジン−3−イル)−1H−ピラゾール−4−イル}−3−(メチルチオ)プロパンアミド] the figure was at least 80%.
On to `Cc1nn(-c2cccnc2)cc1NC(=O)NCC(F)(F)F` [1−032], for which the pest or weed control at 10 µg/cm2 was at least 80%.
The same measure, in the same setting: with `CS(=O)(=O)C1CCCN(c2cnn(-c3cccnc3)c2)C1=O` (stereo not shown) [1−035] the figure was at least 80%; with `CON=C(CSC)C(=O)N(C)c1cn(-c2cccnc2)nc1Cl` (single isomer, unassigned) [1−142], at least 80%; with `CCN(C(=O)CCSC)c1cnn(-c2cccnc2)c1` [1−044], at least 80%.
Turning to `CCN(C(=O)CC(=NOC)C(F)(F)F)c1cn(-c2cccnc2)nc1Cl` [1−303], the pest or weed control at 10 µg/cm2 was at least 80%.
The same measure, in the same setting: the figure for `CC(=O)N(C)c1cn(-c2cccnc2)nc1Cl` [1−148] is at least 80%; for `CCN(C(=O)OC(C)(C)C)c1cn(-c2cccnc2)nc1OC` [1−395] it is at least 80%; for `CCN(C(=O)CNC(=O)C(F)(F)F)c1cn(-c2cccnc2)nc1Cl` [1−409] it is at least 80%.
Regarding `CCN(C(=O)C(C)CS(C)(=O)=O)c1cn(-c2cccnc2)nc1C` (stereo not shown) [1−490], the pest or weed control at 10 µg/cm2 is at least 80%.
The same measure, in the same setting: the figure for `C=C1CCN(c2cn(-c3cccnc3)nc2Cl)C1=O` [1−133, 1−{3−クロロ−1−(ピリジン−3−イル)−1H−ピラゾール−4−イル}−3−メチレンピロリジン−2−オン] is at least 80%; for `CC(C)(C)OC(=O)Nc1cn(-c2cccnc2)nc1Br` [1−188, tert−ブチル 3−ブロモ−1−(ピリジン−3−イル)−1H−ピラゾール−4−イルカーバメート] it is at least 80%.
For `CCCON=C(CSC)C(=O)N(CC)c1cn(-c2cccnc2)nc1Cl` [1−173], the pest or weed control at 10 µg/cm2 is at least 80%.
Still for that read-out and setting: with `CCN(C(=O)OC(C)(C)C)c1cn(-c2cccnc2)nc1Cl` [1−056, tert−ブチル 3−クロロ−1−(ピリジン−3−イル)−1H−ピラゾール−4−イル(エチル)カーバメート] the figure was at least 80%.
Take `Cc1nn(-c2cccnc2)cc1N(C)C(N)=O` [1−094]: the pest or weed control at 10 µg/cm2 is at least 80%.
On the same count and under the same terms, the figure for `O=C(NCC(F)(F)F)Nc1cn(-c2cccnc2)nc1Cl` [1−158] is at least 80%; for `CCC(CSC)C(=O)N(C)c1cn(-c2cccnc2)nc1Cl` (stereo not shown) [1−084] it is at least 80%.
For `CCN(C(=O)CC(CSC)=NOC)c1cn(-c2cccnc2)nc1Cl` [1−367], the pest or weed control at 10 µg/cm2 is at least 80%.
For `CCN(C(=O)NCCSC)c1cn(-c2cccnc2)nc1C` [1−060], the pest or weed control at 10 µg/cm2 was at least 80%.
On the same count and under the same terms, the figure for `CCN(C(=O)CCC(F)=C(F)F)c1cn(-c2cccnc2)nc1Cl` [1−418] is at least 80%.
In the case of `CCON=C(CSC)C(=O)N(CC)c1cn(-c2cccnc2)nc1Cl` (single isomer, unassigned) [1−157], the pest or weed control at 10 µg/cm2 was at least 80%.
Same read-out and setting: the figure for `COCN(C(=O)C(C)CSC)c1cn(-c2cccnc2)nc1Cl` (stereo not shown) [1−086] is at least 80%; for `C=CCN(C(=O)CCSC)c1cn(-c2cccnc2)nc1Cl` [1−064] it is at least 80%; for `CC(C)(C)OC(=O)N(CC(F)(F)F)c1cn(-c2cccnc2)nc1Cl` [1−324] it is at least 80%.
On the same count and under the same terms, with `CSCC(=O)N(C)C(C)=Nc1cn(-c2cccnc2)nc1C` [3−004, N−メチル−N−[1−{3−メチル−1−(ピリジン−3−イル)−1H−ピラゾール−4−イルイミノ}エチル]−2−(メチルチオ)アセタミド] the figure was at least 80%; with `CCN(C(=O)CCS(=O)(=O)CC(F)(F)F)c1cn(-c2cccnc2)nc1Cl` [1−155], at least 80%; with `CCSC(C)C(=S)Nc1cnn(-c2cccnc2)c1` (stereo not shown) [1−480], at least 80%.
Consider `CCN(C(=O)CCSC)c1cn(-c2cccnc2)nc1Cl` [1−033], for which the pest or weed control at 10 µg/cm2 is at least 80%.
Still for that read-out and setting: the figure for `CC(C)(C)OC(=O)N(CC1CC1)c1cn(-c2cccnc2)nc1Cl` [1−343] is at least 80%.
For `CCN(C(=O)C(C)SC(C)C)c1cn(-c2cccnc2)nc1Cl` (stereo not shown) [1−248], the pest or weed control at 10 µg/cm2 is at least 80%.
Consider `CSCCN(C(C)=O)c1cn(-c2cccnc2)nc1Cl` [1−186], for which the pest or weed control at 10 µg/cm2 is at least 80%.
As for `CCN(C(=O)CCSCC(F)(F)F)c1cn(-c2cccnc2)nc1Cl` [1−124], the pest or weed control at 10 µg/cm2 was at least 80%.
Still for that read-out and setting: with `CCSC(C)C(=NOC)Nc1cn(-c2cccnc2)nc1Cl` (stereo not shown) [1−356, N−{3−クロロ−1−(ピリジン−3−イル)−1H−ピラゾール−4−イル}−2−(エチルチオ)−N’−メトキシプロパンイミダミド] the figure was at least 80%.

The same assay, now with this note: 96 h, read-out: efficacy (number with abnormal behaviour due to compound / number released × 100).
Regarding `CCN(C(=O)C(CSC)=NOCC[Si](C)(C)C)c1cn(-c2cccnc2)nc1Cl` [1−268], the pest or weed control at 10 µg/cm2 was at least 80%.
